Values of other authors as cited in patent US20100303877A1, “Controlled Release Hydrogel Films” (Board of Regents, The University of Texas System, priority 2009, published 2010).

Test system: mammalian cells

[Ag+] [Ag^+, silver ions]
silver ion concentration above which cytotoxicity occurs: > 10 mg per liter
